Reference: article PMC6675120, “Potent and selective inhibitors for M32 metallocarboxypeptidases identified from high-throughput screening of anti-kinetoplastid chemical boxes” (PLoS Neglected Tropical Diseases, 2019)
Several values for one entry are separate records, joined by “and”; a condition that tells them apart may be missing. Equal values may be shown once. Read-outs that look alike come from different tables or passages of the source.

How the values were obtained:
[1] = molecular target: TcMCP-1 (Trypanosoma cruzi, UniProt Q6ZXC0); assay: Continuous fluorogenic (FRET) TcMCP-1 assay with Abz-LKFK(Dnp)-OH, primary and secondary screening; assay type: biochemical; parameters: inhibition: dose or concentration left out as unconfirmed; settings: for EDTA control (RFU/sec) Mean: EDTA final concentration 31,25 mM, inhibition control; for TcMCP-1 Hill Slope: four-parameter Hill fit of dose-response curve; for TcMCP-1 2º/1º ratio: secondary (31,5 µM) / primary (25 µM) inhibition; for TcMCP-1 Primary screening Inhibition (%) / inhibition at 25 µM: single inhibitor concentration 25 µM; for TcMCP-1 Secondary screening Inhibition (%): single inhibitor concentration 31,5 µM; for inhibition: read-out: TcMCP-1 Secondary screening Inhibition (%)
Protocol: (§1) TcMCP-1 (MEROPS ID: M32.003) and TbMCP-1 were expressed as GST fusion proteins in E. coli BL21 (DE3) Codon Plus and purified as previously described.
(§2) TbMCP-1 and TcMCP-1 activities were assayed fluorometrically with Abz-RFFK(Dnp)-OH and Abz-LKFK(Dnp)-OH substrates, respectively, in 100 mM MOPS pH 7,2 containing 0,01% Triton X-100. Assays were performed in solid black 384-well plates (final reaction volume ~80 μL) and the hydrolysis of the K(Dnp)-OH group was monitored continuously at 30 °C with a Beckman Coulter DTX 880 Multimode Reader (Radnor, Pennsylvania, USA) using standard 320 nm excitation and 420 nm emission filter set.
(§3) In all cases, EDTA (final concentration 31,25 mM) was used as positive inhibition control.
(§4) Then, 40 μL of 100 mM MOPS, 0,01% Triton X-100 pH 7,2 containing TbMCP-1 (2,50 nM) or TcMCP-1 (0,34 nM) were added to each well, plates were homogenized (30 seg, orbital, medium intensity) and each well subjected to a single autofluorescence read (ex/em = 320/420 nm). Plates were incubated in darkness for 15 min at 30 °C and then 40 μL of Abz-RFFK(Dnp)-OH (4 μM) or Abz-LKFK(Dnp)-OH (0,8 μM) in assay buffer were added to each well to start the reaction. After homogenization (30 seg, orbital, medium intensity), the fluorescence of the Abz group (ortho-aminobenzoic acid) (ex/em = 320/420 nm) was acquired kinetically for each well (8 read cycles, one cycle every 300 seconds). Considering our previous experiences, the auto-fluorescent cut-off was arbitrarily set at 2x10^5 RFU to discard highly interfering compounds. All compounds were assayed in singlet (without replicates) due to the limited availability of stocks.
(§5) Raw screening measurements were used to determine the slope (dF/dt) of progression curves by linear regression for control and non-interfering compound wells. In the case of control-dependent hit selection criteria, percent inhibition percentage (%Inh) was calculated for each compound according to the following equation: Inh=100∙[1−(dF/dt^WELL−μ^C−)/(μ^C+−μ^C−)] (1) where dF/dt^WELL represents the slope of each compound well and μ^C+ and μ^C− the average of MCP (no-inhibition) and substrate (no-enzyme) controls, respectively.
(§6) Compounds selected from primary screening were re-tested in a dose-response manner (final concentration ranging from 7,5 to 62,5 μM) using identical assay conditions. To avoid any positional and/or association bias, we randomly defined the row position for each compound. One μL of compounds stock (10 mM in DMSO) and EDTA (31,25 mM) were added to the first well of column 1, followed by addition of 40 μL of 100 mM MOPS, 0,01% Triton X-100 pH 7,2 buffer. After addition of 20 μL of the same buffer to subsequent wells of the plate, 22 serial 2-fold dilutions were made horizontally. The last two positions of every row were used, alternatively, for C^+ and C^− controls to reduce any positional and/or association bias. Then, 20 μL of activity buffer containing TbMCP-1 or TcMCP-1 were added to each well, except for those corresponding to C^−; completed with 20 μL of activity buffer. After homogenization, 15 minutes of incubation at 30°C and autofluorescence measurement, the substrate (in activity buffer) was added to the previous mix. Data collection and processing were performed exactly as described above. Percentage of M32 MCPs residual activity was calculated for each condition according to the following equation: %Res.Act^MCP=100∙[(dF/dt^WELL−μ^C−)/(μ^C+−μ^C−)] (2) where dF/dt^WELL represents the slope of each compound well and μ^C+ and μ^C− the average of MCP (no-inhibition) and substrate (no-enzyme) controls, respectively.

[2] = molecular target: TbMCP-1 (Trypanosoma brucei, UniProt Q386R0); assay: Continuous fluorogenic (FRET) TbMCP-1 assay with Abz-RFFK(Dnp)-OH, primary and secondary screening; assay type: biochemical; settings: for EDTA control (RFU/sec) Mean: EDTA final concentration 31,25 mM, inhibition control; for TbMCP-1 2º/1º ratio: secondary (31,5 µM) / primary (25 µM) inhibition; for TbMCP-1 Secondary screening Inhibition (%) / inhibition: single inhibitor concentration 31,5 µM; for TbMCP-1 Hill Slope: four-parameter Hill fit of dose-response curve; for inhibition at 25 µM: read-out: TbMCP-1 Primary screening Inhibition (%)
Protocol: as §1, §2, §3, §4, §5
as §6, with “To” for “Compounds selected from primary screening were re-tested in a dose-response manner (final concentration ranging from 7,5 to 62,5 μM) using identical assay conditions. To”

[3] = secondary screening, two-fold dilutions 7,5 pM to 62,5 μM, KM/[S] ~ 1, no replicates
[4] = single inhibitor concentration 25 µM

TcMCP-1, sequence (Q6ZXC0 entry or part of it): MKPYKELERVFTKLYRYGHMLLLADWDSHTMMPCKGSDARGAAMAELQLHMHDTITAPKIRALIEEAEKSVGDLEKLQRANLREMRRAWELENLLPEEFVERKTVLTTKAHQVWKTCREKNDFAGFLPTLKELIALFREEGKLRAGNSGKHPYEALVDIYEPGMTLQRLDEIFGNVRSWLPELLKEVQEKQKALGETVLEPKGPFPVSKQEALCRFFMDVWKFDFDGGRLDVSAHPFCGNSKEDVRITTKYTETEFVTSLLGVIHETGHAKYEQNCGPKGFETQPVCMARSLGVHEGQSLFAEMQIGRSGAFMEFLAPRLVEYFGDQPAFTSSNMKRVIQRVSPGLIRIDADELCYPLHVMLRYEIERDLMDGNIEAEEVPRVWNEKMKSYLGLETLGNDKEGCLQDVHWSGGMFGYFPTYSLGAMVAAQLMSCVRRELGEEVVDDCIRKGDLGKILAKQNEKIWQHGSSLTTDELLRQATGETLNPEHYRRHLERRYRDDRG
TbMCP-1, sequence (Q386R0 entry or part of it): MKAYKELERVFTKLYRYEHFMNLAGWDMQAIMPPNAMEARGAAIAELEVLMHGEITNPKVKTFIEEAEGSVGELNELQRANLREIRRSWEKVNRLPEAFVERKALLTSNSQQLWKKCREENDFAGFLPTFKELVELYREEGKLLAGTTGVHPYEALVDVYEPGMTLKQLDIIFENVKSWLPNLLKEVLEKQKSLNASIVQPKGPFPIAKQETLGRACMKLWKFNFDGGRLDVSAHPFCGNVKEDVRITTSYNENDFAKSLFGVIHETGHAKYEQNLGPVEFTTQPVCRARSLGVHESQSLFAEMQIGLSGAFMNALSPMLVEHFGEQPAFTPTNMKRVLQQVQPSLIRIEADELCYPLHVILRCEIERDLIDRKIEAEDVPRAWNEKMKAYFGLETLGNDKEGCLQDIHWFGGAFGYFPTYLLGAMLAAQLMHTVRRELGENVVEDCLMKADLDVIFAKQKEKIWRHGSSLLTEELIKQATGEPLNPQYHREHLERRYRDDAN

SMILES	IC50 [1] [µM]	TcMCP-1 Hill Slope [1]	TcMCP-1 2º/1º ratio [1]	IC50 [1, 3]	TcMCP-1 Primary screening Inhibition (%) [1]	TcMCP-1 Secondary screening Inhibition (%) [1]	TbMCP-1 2º/1º ratio [2]	TbMCP-1 Secondary screening Inhibition (%) [2]	IC50 [2] [µM]	TbMCP-1 Hill Slope [2]	inhibition at 25 µM [2, 4] [%]	inhibition [2] [%]	TbMCP-1 Primary screening Inhibition (%) [2, 4]	also measured
O=C(O)CN(CCN(CC(=O)O)CC(=O)O)CC(=O)O [EDTA, reference compound]	–	–	–	–	–	–	–	–	–	–	–	–	–	EDTA control (RFU/sec) Mean ([1]; Plate 1): 1,28 RFU/sec; EDTA control (RFU/sec) Mean ([1]; Plate 2): 2,32 RFU/sec; EDTA control (RFU/sec) Mean ([2]; Plate 1): 0,13 RFU/sec; EDTA control (RFU/sec) Mean ([2]; Plate 2): 0,39 RFU/sec
O=C(Nc1nc2cc(Cl)ccc2o1)c1cccc(Cl)c1 [TCMDC-143172]	11.2	-2,825	1,30	~10 µM	65,01%	84,56%	-0,04	-1,57%	–	–	–	–	–	TbMCP-1 Primary screening Inhibition (%) ([2]; single inhibitor concentration 25 µM, 25 µM): 42,44%
O=c1[nH]c(C=Cc2cccc(OCCOc3ccccc3)c2)nc(O)c1[N+](=O)[O-] [TCMDC-143209]	4180	-1,019	1,09	≤ 10 µM	–	–	0,86	–	28.3	-1,2405	50	42.9	–	inhibition [1]: 92.5%; inhibition at 25 µM [1]: 85%
CCn1c(-c2nonc2N)nc2c(C(C)O)ncc(OC(CN)c3ccccc3)c21 (centres unmarked) [TCMDC-143323]	–	–	–	–	–	–	1,00	–	–	-0,894	87.2	87	–	inhibition on TcMCP-1 [1]: < 30%
Cl.NS(=O)(=O)c1ccc(Nc2ncc3cccc(OC4CCNCC4)c3n2)cc1 [TCMDC-143382]	20.6	-0,7277	1,18	–	53,63%	63,12%	0,99	57,14%	22.6	-0,7258	–	–	57,82%	–
CS(=O)(=O)c1cccc(CNC(=O)c2cncc(N3CCN(c4ccc(F)cc4)CC3)c2)c1 [TCMDC-143385]	–	-0,9614	1,88	≤ 10 µM and ~10 µM	–	–	–	–	–	–	–	–	–	inhibition [1]: 80.8%; inhibition at 25 µM [1]: 42.9%; inhibition at 25 µM [2]: < 40%
O=C(c1cccc(Cl)c1Cl)N1CCn2c1nc(-c1ccncc1)cc2=O [TCMDC-143409]	–	–	–	–	–	–	1,13	–	–	-1,2409	68.9	78	–	inhibition on TcMCP-1 [1]: < 30%; IC50 [2, 3]: 10.4 µM
Fc1ccccc1N1CC2CCN(c3cccnc3)CC2C1 (centres unmarked) [TCMDC-143422]	1.52	-1,038	1,19	≤ 10 µM	–	–	0,99	–	–	-1,206	81.1	80.2	–	inhibition [1]: 93.9%; inhibition at 25 µM [1]: 78.8%; IC50 [2, 3]: 10.5 µM
CCOC(=O)c1cn[nH]c1S(=O)(=O)N1CCC1c1ccccc1 (centres unmarked) [TCMDC-143456]	–	-0,9597	1,10	≤ 10 µM	–	–	1,04	–	14.7	-1,247	66.2	69	–	inhibition [1]: 97.7%; inhibition at 25 µM [1]: 89.1%
COc1cc(Nc2nccc(Nc3onc(C)c3C)n2)cc(S(=O)(=O)C2CCOCC2)c1 [TCMDC-143462]	15.5	-0,9436	1,40	–	43,06%	60,29%	0,13	6,29%	–	–	–	–	47,90%	–
COc1ccc2ncc(Cl)c(CCN3CC[C@@H](NCc4cc5c(cn4)OCS5)[C@H](O)C3)c2n1 [TCMDC-143513]	13.5	-0,9734	1,07	–	65,65%	70,48%	0,76	42,64%	28.3	-0,8371	–	–	56,08%	–
C[C@@H](Oc1cc(-n2cnc3ccc(O[C@H]4CCNC4)cc32)sc1C(N)=O)c1ccccc1Cl [TCMDC-143515]	21.8	-1,149	1,02	–	54,26%	55,47%	1,26	50,90%	31.7	-0,8447	–	–	40,42%	–
CN(CC1CCCO1)S(=O)(=O)c1ccc(C(=O)Nc2nc(-c3ccccn3)cs2)cc1 (centres unmarked) [TCMDC-143551]	13.8	-1,834	1,14	–	65,04%	74,11%	0,99	41,97%	34.5	-1,562	–	–	42,28%	–
Cc1cc(C)c(C#N)c(SCC(=O)c2ccc3c(c2)OCO3)n1 [TCMDC-143625]	–	–	0,45	–	43,83%	19,89%	0,35	17,11%	–	–	–	–	49,55%	–
